According to patent US9980943B2, “Methods of treating muscular dystrophy” (BOARD OF REGENTS OF THE NEVADA SYSTEM OF HIGHER EDUCATION, …, priority 2013, dated 2018):

Columns and labels:
Assay type in all cases: cell-based, mouse
[1] = test system: α7 integrin (LacZ reporter in α7+/LacZ myotubes); test: Myotube α7 integrin FDG assay (Burkin assay in myotubes, 96-well); settings: myotubes
[2] = test system: α7 integrin (LacZ reporter in α7βgal+/− myoblasts); test: Myoblast α7+/LacZ integrin FDG assay (Burkin assay in myoblasts, 96-well); settings: α7+/LacZ myoblasts, 96-well
[3] = test system: β-galactosidase in CMV-LacZ C2C12 myotubes; test: CMV-LacZ secondary screen in C2C12 myotubes (β-Gal stabilizing assay); settings: C2C12 CMV-LacZ myotubes, fold relative to DMSO
Summary of the method: (§1)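 β-Gal level was the read-out, measured in a clonal C2C12 line expressing LacZ from a CMV promoter. Dose-response curves used six concentrations, 0.5 μM up to 40 μM, with duplicate points.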

[4] = test system: β-galactosidase in CMV-LacZ C2C12 myoblasts; test: CMV-LacZ secondary screen in C2C12 myoblasts (β-Gal stabilizing assay); settings: CMV-LacZ C2C12 myoblasts
Summary of the method: as §1

Row | SMILES | Burkin Assay in Myotubes, α7 integrin LacZ reporter signal relative to DMSO ([1]; 0.5 uM) | Burkin Assay in Myotubes, α7 integrin LacZ reporter signal relative to DMSO ([1]; 1 uM) | Burkin Assay in Myotubes, α7 integrin LacZ reporter signal relative to DMSO ([1]; 5 uM) | Burkin Assay in Myotubes, α7 integrin LacZ reporter signal relative to DMSO ([1]; 10 uM) | Burkin Assay in Myotubes, α7 integrin LacZ reporter signal relative to DMSO ([1]; 20 uM) | Burkin Assay in Myotubes, α7 integrin LacZ reporter signal relative to DMSO ([1]; 40 uM) | Burkin Assay in Myoblasts, signal relative to DMSO ([2]; 0.5 uM) | Burkin Assay in Myoblasts, signal relative to DMSO ([2]; 1 uM) | Burkin Assay in Myoblasts, signal relative to DMSO ([2]; 5 uM) | Burkin Assay in Myoblasts, signal relative to DMSO ([2]; 10 uM) | Burkin Assay in Myoblasts, signal relative to DMSO ([2]; 20 uM) | Burkin Assay in Myoblasts, signal relative to DMSO ([2]; 40 uM) | CMV-LACZ in Myotubes, signal relative to DMSO ([3]; 0.5 uM) | CMV-LACZ in Myotubes, signal relative to DMSO ([3]; 1 uM) | CMV-LACZ in Myotubes, signal relative to DMSO ([3]; 5 uM) | CMV-LACZ in Myotubes, signal relative to DMSO ([3]; 10 uM) | CMV-LACZ in Myotubes, signal relative to DMSO ([3]; 20 uM) | CMV-LACZ in Myotubes, signal relative to DMSO ([3]; 40 uM) | CMV-LACZ in Myoblasts (β-galactosidase activity relative to DMSO) ([4]; 0.5 uM) | CMV-LACZ in Myoblasts (β-galactosidase activity relative to DMSO) ([4]; 1 uM) | also measured
1 | CC1Cc2ccccc2N1C(=O)CSc1nnc(N)s1 (stereo not drawn) [MLS001160611-01] | 0.9452 | 0.8628 | 1.006 | 1.169 | 0.8397 | 1.24 | 1.1058 | 0.9767 | 1.004 | 1.115 | 0.9749 | 0.9267 | 0.9762 | 1.2419 | 0.8306 | 0.9661 | 1.0240 | 0.9190 | 1.2070 | 0.8157 | CMV-LACZ in Myoblasts (β-galactosidase activity relative to DMSO) ([4]; 5 uM): 1.0117; CMV-LACZ in Myoblasts (β-galactosidase activity relative to DMSO) ([4]; 10 uM): 1.0340; CMV-LACZ in Myoblasts (β-galactosidase activity relative to DMSO) ([4]; 20 uM): 0.8144; CMV-LACZ in Myoblasts (β-galactosidase activity relative to DMSO) ([4]; 40 uM): 1.0389
2 | CCC(C)n1[nH]c(=O)cc1N (stereo not drawn) [MLS000073150-01] | 1.111 | 0.9205 | 0.9467 | 0.9476 | 0.8369 | 0.856 | 1.262 | 1.0875 | 0.9262 | 0.909 | 1.139 | 1.068 | 1.0752 | 1.0848 | 1.2058 | 1.1088 | 0.9750 | 1.0390 | 1.0753 | 1.8970 | CMV-LACZ in Myoblasts (β-galactosidase activity relative to DMSO) ([4]; 5 uM): 0.8193; CMV-LACZ in Myoblasts (β-galactosidase activity relative to DMSO) ([4]; 10 uM): 0.9954; CMV-LACZ in Myoblasts (β-galactosidase activity relative to DMSO) ([4]; 20 uM): 0.9491; CMV-LACZ in Myoblasts (β-galactosidase activity relative to DMSO) ([4]; 40 uM): 0.9000
3 | O=C(c1ccccc1)N1CCN(S(=O)(=O)c2cccs2)CC1 [MLS001035690-01] | 1.111 | 1.072 | 1.073 | 0.9358 | 0.972 | 0.9238 | 1.051 | 1.151 | 1.186 | 0.9872 | 1.055 | 1.091 | 1.0474 | 0.8644 | 1.1552 | 1.1317 | 1.1976 | 1.0976 | 0.9819 | 1.0406 | CMV-LACZ in Myoblasts (β-galactosidase activity relative to DMSO) ([4]; 5 uM): 0.9910; CMV-LACZ in Myoblasts (β-galactosidase activity relative to DMSO) ([4]; 10 uM): 1.2020; CMV-LACZ in Myoblasts (β-galactosidase activity relative to DMSO) ([4]; 20 uM): 1.3585; CMV-LACZ in Myoblasts (β-galactosidase activity relative to DMSO) ([4]; 40 uM): 0.9178
4 | Cn1cc(CN(CCO)Cc2cccs2)c(-c2ccccc2F)n1 [MLS000732652-01] | 1.092 | 1.116 | 1.1938 | 1.141 | 0.6797 | 0.7309 | 1.176 | 1.191 | 0.972 | 1.2648 | 1.0346 | 0.8792 | 1.1615 | 0.8859 | 1.0614 | 1.0697 | 0.8518 | 1.0329 | 0.6700 | 0.7744 | CMV-LACZ in Myoblasts (β-galactosidase activity relative to DMSO) ([4]; 5 uM): 1.1327; CMV-LACZ in Myoblasts (β-galactosidase activity relative to DMSO) ([4]; 10 uM): 1.1235; CMV-LACZ in Myoblasts (β-galactosidase activity relative to DMSO) ([4]; 20 uM): 0.9374; CMV-LACZ in Myoblasts (β-galactosidase activity relative to DMSO) ([4]; 40 uM): 0.7856
5 | Cc1ccc(NS(=O)(=O)c2cccc(C(=O)O)c2)cc1S(=O)(=O)N1CCOCC1 [MLS000393966-01] | 0.8547 | 0.8436 | 1.304 | 0.9546 | 1.233 | 1.015 | 0.9495 | 0.9626 | 1.793 | 1.076 | 0.9904 | 0.965 | 0.9358 | 1.3516 | 0.8958 | 1.1877 | 1.0378 | 1.1167 | 0.9249 | 1.0625 | CMV-LACZ in Myoblasts (β-galactosidase activity relative to DMSO) ([4]; 5 uM): 1.1744; CMV-LACZ in Myoblasts (β-galactosidase activity relative to DMSO) ([4]; 10 uM): 0.8087; CMV-LACZ in Myoblasts (β-galactosidase activity relative to DMSO) ([4]; 20 uM): 1.0411; CMV-LACZ in Myoblasts (β-galactosidase activity relative to DMSO) ([4]; 40 uM): 0.9156
